Series [1] is described as follows: Metabolic stability in human liver microsome assessed as intrinsic clearance at 0.5 uM incubated upto 30 mins by UPLC-MS/MS analysis. The format is ADME. The conditions noted are these: microsomes, 0.5 h.
Series [2] addresses Mitogen-activated protein kinase kinase kinase 1 (Homo sapiens) (UniProt Q13233). As to the kind of experiment: Inhibition of human MEKK1 at 1 uM incubated for 30 mins in presence of [gamma-33P]ATP by kinase selectivity assay.
For series [3], the target named is T1, Mitogen-activated protein kinase kinase kinase 7 (Homo sapiens) (UniProt O43318).
T1 sequence (whole entry): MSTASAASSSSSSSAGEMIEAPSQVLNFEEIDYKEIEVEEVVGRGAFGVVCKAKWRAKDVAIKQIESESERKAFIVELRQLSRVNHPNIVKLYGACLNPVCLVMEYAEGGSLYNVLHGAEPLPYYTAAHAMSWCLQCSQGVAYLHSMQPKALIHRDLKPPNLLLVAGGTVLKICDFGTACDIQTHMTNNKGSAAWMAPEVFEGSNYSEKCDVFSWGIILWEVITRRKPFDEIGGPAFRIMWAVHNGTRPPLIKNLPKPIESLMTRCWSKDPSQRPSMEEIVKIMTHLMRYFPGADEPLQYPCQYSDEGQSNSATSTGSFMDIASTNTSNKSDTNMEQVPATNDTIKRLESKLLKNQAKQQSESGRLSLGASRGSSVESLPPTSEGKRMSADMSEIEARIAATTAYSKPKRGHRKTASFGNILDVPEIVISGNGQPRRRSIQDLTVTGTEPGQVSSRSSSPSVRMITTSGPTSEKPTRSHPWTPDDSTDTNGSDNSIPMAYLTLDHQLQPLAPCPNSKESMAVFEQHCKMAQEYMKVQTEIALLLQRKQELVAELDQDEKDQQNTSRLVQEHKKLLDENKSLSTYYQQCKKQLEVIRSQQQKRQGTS
As to the kind of experiment: Inhibition of human TAK1 at 1 uM incubated for 30 mins in presence of [gamma-33P]ATP by kinase selectivity assay.

Series [4] concerns Plasmodium falciparum. Put plainly: Antimalarial activity against chloroquine sensitive Plasmodium falciparum 3D7 infected in human RBC assessed as parasite growth inhibition incubated for 72 hrs by SYBR Green dye based fluorescence assay. The class given is functional, organism-based. The following applies: 3D7, Erythrocyte.
Series [5] is described as follows: Effective permeability in PBS at pH 7.4 incubated for 5 hrs by PAMPA based UPLC-MS/MS analysis. The format is ADME.
The nature of series [6]: Aqueous solubility of compound in PBS buffer at pH 7.4 by HPLC-UV analysis. The format is physicochemical.
Series [7] has as its target Serine/threonine-protein kinase pim-1 (Homo sapiens) (UniProt P11309). As to the kind of experiment: Inhibition of human PIM1 at 1 uM incubated for 30 mins in presence of [gamma-33P]ATP by kinase selectivity assay.
The target of series [8] is T2, Tyrosine-protein kinase JAK3 (Homo sapiens) (UniProt P52333).
T2 sequence (whole entry): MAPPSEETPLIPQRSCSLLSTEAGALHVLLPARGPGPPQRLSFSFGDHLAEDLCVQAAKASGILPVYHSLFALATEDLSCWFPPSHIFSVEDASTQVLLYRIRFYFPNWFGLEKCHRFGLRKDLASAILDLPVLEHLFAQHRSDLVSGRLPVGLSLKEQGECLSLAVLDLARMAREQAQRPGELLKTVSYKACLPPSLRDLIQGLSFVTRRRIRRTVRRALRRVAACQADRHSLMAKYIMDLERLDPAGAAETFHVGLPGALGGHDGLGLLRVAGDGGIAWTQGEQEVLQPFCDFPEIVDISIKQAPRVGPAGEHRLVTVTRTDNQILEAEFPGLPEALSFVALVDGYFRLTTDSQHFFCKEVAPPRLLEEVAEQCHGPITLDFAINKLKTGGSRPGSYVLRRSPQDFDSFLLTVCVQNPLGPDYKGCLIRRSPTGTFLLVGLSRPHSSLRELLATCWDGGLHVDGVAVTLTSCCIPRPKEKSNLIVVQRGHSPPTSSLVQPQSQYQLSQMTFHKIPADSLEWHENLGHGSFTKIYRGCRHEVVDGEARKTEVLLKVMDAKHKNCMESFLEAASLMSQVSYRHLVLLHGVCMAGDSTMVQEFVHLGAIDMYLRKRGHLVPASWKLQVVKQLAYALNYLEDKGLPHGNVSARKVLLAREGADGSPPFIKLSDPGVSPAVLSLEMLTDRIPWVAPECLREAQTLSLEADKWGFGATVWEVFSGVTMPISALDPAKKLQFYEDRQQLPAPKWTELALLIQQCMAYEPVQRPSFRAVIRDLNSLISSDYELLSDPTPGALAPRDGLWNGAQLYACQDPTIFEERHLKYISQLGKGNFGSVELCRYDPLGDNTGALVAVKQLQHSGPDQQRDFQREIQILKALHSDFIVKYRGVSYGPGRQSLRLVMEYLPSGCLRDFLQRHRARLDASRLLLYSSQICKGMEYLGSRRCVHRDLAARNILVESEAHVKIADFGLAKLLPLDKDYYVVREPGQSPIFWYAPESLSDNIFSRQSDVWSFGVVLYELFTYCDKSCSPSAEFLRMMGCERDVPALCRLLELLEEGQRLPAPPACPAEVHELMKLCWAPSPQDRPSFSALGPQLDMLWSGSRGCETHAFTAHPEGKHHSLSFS
As to the kind of experiment: Inhibition of human JAK3 at 1 uM incubated for 30 mins in presence of [gamma-33P]ATP by kinase selectivity assay.

In series [9] the target is Mitogen-activated protein kinase 8 (Homo sapiens) (UniProt P45983). As to the kind of experiment: Inhibition of human JNK1 at 1 uM incubated for 30 mins in presence of [gamma-33P]ATP by kinase selectivity assay.
Mitogen-activated protein kinase 8 (Homo sapiens), sequence (P45983 whole entry): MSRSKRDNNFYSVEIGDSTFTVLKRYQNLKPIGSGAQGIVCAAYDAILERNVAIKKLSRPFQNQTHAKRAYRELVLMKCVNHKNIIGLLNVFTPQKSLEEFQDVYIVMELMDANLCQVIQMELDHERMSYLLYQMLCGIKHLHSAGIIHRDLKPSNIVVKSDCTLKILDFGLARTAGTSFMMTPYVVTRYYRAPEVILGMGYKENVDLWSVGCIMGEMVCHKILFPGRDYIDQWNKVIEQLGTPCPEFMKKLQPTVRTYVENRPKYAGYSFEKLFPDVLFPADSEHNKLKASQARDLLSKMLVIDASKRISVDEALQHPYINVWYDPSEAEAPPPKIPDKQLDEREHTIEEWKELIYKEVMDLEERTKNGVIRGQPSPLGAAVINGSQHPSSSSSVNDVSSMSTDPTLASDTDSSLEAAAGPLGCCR
The target in series [10] is Cyclin-dependent kinase 2 (Homo sapiens) (UniProt P24941). As to the kind of experiment: Inhibition of human CDK2 at 1 uM incubated for 30 mins in presence of [gamma-33P]ATP by kinase selectivity assay.
Series [11] can be described thus: Partition coefficient, logD of compound in octanol and phosphate buffer at pH 7.4 incubated for 6 hrs under shaking condition by HPLC-UV analysis. The class given is physicochemical.
The subject of series [12] is HepG2. As to the kind of experiment: Cytotoxicity against human HepG2 cells assessed as cell growth inhibition incubated for 72 hrs by resazurin dye based fluorescence assay. The following applies: HepG2, 72 h. The format is functional.
In series [13] the target is Receptor tyrosine-protein kinase erbB-4 (Homo sapiens) (UniProt Q15303). As to the kind of experiment: Inhibition of human HER4 at 1 uM incubated for 30 mins in presence of [gamma-33P]ATP by kinase selectivity assay.
Receptor tyrosine-protein kinase erbB-4 (Homo sapiens), sequence (Q15303 whole entry): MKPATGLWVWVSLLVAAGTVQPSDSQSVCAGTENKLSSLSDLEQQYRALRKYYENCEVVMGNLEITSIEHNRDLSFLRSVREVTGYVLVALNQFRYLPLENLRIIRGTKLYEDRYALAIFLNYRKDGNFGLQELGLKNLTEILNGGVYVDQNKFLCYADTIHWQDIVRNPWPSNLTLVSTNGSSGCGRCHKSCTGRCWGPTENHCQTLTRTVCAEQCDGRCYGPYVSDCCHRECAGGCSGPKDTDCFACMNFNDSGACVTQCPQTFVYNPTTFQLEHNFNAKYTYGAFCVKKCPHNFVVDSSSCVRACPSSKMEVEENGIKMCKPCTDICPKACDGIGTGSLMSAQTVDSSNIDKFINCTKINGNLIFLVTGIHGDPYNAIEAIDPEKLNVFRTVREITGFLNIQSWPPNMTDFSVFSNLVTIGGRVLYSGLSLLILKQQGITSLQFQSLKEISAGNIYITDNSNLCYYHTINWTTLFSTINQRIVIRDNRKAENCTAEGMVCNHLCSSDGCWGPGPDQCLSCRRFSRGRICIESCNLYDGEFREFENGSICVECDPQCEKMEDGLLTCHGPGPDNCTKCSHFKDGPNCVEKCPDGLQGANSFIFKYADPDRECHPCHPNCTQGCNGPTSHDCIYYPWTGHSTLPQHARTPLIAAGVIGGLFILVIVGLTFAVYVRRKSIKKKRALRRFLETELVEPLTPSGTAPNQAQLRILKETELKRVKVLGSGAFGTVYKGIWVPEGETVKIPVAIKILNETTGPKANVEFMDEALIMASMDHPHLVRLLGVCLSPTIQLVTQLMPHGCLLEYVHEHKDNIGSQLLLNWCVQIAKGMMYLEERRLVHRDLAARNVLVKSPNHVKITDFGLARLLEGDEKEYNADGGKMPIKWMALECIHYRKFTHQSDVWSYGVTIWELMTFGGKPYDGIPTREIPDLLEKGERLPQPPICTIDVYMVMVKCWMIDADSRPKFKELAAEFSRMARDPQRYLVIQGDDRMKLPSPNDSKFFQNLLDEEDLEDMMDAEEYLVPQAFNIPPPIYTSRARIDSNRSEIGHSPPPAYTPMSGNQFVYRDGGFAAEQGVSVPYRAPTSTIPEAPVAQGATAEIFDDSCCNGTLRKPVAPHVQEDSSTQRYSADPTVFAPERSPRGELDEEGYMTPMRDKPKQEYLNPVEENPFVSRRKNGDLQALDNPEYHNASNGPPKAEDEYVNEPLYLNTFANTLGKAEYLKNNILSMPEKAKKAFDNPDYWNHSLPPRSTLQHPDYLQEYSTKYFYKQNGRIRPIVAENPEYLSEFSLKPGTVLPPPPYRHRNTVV
Series [14] concerns the target T3, Aurora kinase A (Homo sapiens) (UniProt O14965).
T3 sequence (whole entry): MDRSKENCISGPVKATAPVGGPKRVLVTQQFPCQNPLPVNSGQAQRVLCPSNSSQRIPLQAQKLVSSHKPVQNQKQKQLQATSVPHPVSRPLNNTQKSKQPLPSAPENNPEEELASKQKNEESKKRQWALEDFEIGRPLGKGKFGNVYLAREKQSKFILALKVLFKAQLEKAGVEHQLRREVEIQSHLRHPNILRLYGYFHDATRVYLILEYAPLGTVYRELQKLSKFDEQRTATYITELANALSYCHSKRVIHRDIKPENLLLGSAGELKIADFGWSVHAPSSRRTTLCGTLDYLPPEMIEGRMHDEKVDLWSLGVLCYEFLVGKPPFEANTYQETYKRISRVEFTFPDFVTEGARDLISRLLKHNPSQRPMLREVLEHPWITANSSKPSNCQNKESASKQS
Put plainly: Inhibition of human AURA at 1 uM incubated for 30 mins in presence of [gamma-33P]ATP by kinase selectivity assay.

Series [15] is described as follows: Metabolic stability in CD1 mouse liver microsome assessed as intrinsic clearance at 0.5 uM incubated upto 30 mins by UPLC-MS/MS analysis. The format is ADME. The following applies: microsomes, 0.5 h.
The target in series [16] is Vascular endothelial growth factor receptor 1 (Homo sapiens) (UniProt P17948). As to the kind of experiment: Inhibition of human VEGFR1 at 1 uM incubated for 30 mins in presence of [gamma-33P]ATP by kinase selectivity assay.
Vascular endothelial growth factor receptor 1 (Homo sapiens), sequence (P17948 whole entry): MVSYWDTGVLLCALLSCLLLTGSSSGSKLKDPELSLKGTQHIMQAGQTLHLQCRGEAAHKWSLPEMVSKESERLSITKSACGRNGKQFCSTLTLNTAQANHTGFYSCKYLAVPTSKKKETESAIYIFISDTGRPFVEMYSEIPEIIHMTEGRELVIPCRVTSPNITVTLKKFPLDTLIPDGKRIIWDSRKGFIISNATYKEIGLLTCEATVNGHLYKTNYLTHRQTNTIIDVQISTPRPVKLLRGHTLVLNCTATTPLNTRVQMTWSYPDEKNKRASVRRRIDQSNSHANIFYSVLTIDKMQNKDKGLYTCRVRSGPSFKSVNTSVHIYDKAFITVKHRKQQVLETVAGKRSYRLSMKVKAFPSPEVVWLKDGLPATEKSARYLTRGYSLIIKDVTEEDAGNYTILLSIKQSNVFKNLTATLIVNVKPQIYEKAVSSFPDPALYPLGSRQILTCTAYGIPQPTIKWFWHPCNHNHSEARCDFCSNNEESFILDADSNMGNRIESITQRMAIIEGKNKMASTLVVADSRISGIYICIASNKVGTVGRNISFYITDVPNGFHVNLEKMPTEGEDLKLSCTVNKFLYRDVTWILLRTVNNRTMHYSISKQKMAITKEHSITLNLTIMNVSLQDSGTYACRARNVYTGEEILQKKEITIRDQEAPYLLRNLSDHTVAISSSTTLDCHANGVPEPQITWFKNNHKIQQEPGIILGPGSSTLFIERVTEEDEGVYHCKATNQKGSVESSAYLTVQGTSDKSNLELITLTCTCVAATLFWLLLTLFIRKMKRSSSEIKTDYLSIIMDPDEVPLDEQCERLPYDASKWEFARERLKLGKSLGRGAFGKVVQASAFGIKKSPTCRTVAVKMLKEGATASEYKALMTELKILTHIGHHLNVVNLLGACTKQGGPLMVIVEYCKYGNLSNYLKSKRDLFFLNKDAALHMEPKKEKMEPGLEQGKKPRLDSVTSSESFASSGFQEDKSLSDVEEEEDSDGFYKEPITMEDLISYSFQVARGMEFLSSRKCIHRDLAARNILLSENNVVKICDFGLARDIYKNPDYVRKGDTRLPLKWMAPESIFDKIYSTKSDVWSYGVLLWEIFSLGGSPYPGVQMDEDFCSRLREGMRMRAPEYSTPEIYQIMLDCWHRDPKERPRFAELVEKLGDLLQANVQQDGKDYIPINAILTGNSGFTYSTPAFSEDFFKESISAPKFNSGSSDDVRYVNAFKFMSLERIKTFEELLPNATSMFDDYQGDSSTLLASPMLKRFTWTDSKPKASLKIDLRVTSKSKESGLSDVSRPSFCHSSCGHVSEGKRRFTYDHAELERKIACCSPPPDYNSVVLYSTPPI
Series [17] deals with Mitogen-activated protein kinase 3 (Homo sapiens) (UniProt P27361). Put plainly: Inhibition of human ERK1 at 1 uM incubated for 30 mins in presence of [gamma-33P]ATP by kinase selectivity assay.
Series [18] relates to Plasmodium falciparum. Put plainly: Antimalarial activity against Plasmodium falciparum 3D7 assessed as reduction in parasite growth incubated for 72 hrs. The class given is functional, organism-based. The conditions noted are these: 3D7, 72 h.
Series [19] deals with HepG2. As to the kind of experiment: Cytotoxicity against human HepG2 cells assessed as cell growth inhibition at 10 uM incubated for 48 hrs by CellTiter-Glo assay. The class given is functional. Also on record: scale not given: the % may be the effect or the level left.

≈ marks a conversion by molar mass, not a printed value. Some results are limits rather than exact numbers.

Mitogen-activated protein kinase kinase kinase 1 (Homo sapiens), sequence (Q13233 whole entry): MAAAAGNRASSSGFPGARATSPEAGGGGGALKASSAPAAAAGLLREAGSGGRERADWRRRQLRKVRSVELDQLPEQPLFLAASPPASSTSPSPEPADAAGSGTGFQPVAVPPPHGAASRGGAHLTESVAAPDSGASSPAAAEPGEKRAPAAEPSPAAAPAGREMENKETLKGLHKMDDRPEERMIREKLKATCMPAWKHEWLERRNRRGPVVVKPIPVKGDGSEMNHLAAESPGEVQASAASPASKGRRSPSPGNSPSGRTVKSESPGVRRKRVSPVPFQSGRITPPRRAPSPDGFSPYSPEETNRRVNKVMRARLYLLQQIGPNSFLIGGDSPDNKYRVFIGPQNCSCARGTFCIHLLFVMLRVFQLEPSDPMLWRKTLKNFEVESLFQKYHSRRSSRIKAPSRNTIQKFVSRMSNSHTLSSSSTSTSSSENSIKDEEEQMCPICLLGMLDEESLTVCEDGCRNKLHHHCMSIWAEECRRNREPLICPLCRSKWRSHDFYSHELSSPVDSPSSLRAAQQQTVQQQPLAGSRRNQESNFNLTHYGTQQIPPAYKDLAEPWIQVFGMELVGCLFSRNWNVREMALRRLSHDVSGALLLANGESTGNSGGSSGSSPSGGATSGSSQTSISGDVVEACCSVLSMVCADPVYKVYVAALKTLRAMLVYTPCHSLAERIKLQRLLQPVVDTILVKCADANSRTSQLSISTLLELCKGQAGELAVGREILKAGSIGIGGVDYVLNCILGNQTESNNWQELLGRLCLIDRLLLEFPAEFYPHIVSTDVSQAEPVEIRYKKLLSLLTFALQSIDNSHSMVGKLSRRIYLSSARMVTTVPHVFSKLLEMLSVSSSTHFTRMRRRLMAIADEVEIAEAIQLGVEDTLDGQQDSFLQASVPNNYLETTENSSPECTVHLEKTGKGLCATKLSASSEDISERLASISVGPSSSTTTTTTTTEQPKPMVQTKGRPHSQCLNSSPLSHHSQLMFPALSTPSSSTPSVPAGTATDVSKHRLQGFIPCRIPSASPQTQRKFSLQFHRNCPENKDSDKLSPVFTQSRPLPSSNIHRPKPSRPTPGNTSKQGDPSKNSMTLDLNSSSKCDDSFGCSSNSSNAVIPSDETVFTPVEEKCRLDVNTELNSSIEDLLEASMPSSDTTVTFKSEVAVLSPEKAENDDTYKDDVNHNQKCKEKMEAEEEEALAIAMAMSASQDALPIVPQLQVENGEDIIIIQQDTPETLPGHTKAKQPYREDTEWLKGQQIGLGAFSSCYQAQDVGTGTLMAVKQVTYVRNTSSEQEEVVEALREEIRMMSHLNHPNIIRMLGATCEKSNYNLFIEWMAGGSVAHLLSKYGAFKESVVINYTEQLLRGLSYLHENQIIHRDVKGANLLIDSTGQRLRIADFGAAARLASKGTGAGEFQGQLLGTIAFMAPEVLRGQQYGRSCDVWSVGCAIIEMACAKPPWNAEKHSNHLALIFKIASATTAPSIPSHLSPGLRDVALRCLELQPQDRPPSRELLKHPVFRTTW
Serine/threonine-protein kinase pim-1 (Homo sapiens), sequence (P11309 whole entry, looked up): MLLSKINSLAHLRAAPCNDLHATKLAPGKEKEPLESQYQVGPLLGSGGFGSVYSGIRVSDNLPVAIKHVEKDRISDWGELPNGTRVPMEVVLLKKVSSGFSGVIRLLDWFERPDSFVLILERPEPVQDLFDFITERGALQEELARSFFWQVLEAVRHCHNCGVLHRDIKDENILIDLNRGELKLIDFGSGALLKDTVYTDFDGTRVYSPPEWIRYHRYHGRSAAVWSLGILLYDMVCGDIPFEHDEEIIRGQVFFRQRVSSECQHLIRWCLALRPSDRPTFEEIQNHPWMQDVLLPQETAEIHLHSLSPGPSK

For `O=C(Nc1ccccc1)Nc1cccc(Nc2nccc(Nc3ccc4cc[nH]c4c3)n2)c1`, the CLH in [1] was 2.6 mL/min/g; in series [15] it was 3.8 mL/min/g. In addition, the inhibition amounted to 40.7% in series [2]; 17.1% in series [3]; 80.2% in series [7]; 57.7% in [8]; 59.6% in series [9]; 78.8% in [10]. The inhibition in series [13] was 42.3%; in series [14], 16.5%; in series [16], 2.4%; in [17], 75.6%. The concentration for half-maximal inhibition (IC50) in the series with Plasmodium falciparum [4] came out at 90 nM; in the series with HepG2 [12], 3200 nM. The compound further gave an apparent permeability coefficient (Papp) at 5 h in series [5] of 10 ×10⁻⁶ cm/s. The compound further had a solubility in [6] of 0.44 µg/mL (≈ 1.01 µM). In [11], the logD at 6 h was no less than 4.
As for `Cn1cc2ccc(Nc3ccnc(Nc4cccc(NC(=O)Nc5ccccc5)c4)n3)cc2n1`, the values for the CLH in series [1] and in series [15] were 9.1 mL/min/g and greater than 50 mL/min/g, respectively. Further, the inhibition in series [2] was found to be 52.4%; in [3], 35.8%; in series [7] it was 102%; in [8], 51.4%; in series [9], 68.8%; in series [10], 78.7%. In addition, the inhibition came out at 67.7% in [13], 22% in series [14], 4.1% in series [16] and 65.6% in [17]. Also, the IC50 with Plasmodium falciparum [4] was determined as 220 nM; in the series on HepG2 [12] it was 12000 nM. In [6], this compound had a solubility of 0.11 µg/mL (≈ 0.244 µM). Also, the logD at 6 h in series [11] was no less than 4.
On to `CC(=O)c1ccc(NC(=O)Nc2ccc(N(C)c3ccnc(Nc4cccc(CS(C)(=O)=O)c4)n3)cc2)cc1`, for which the EC50 with Plasmodium falciparum [18] came out at 120 nM. Further, the Activity in the series on HepG2 [19] was determined as 86%.
As to `O=C(Nc1ccccc1)Nc1cccc(Nc2nccc(Nc3ccc4[nH]ccc4c3)n2)c1`, the figures for the CLH in series [1] and in series [15] were 5 mL/min/g and 8.8 mL/min/g, respectively. Moreover, the inhibition is 45.9% in series [2]; 26.6% in [3]; 99.6% in series [7]; 56.7% in series [8]; 68% in series [9]; 71.4% in series [10]. Also, the inhibition in series [13] stood at 32.2%; in series [14] it was 21.7%; in series [16], 1.8%; in series [17], 84%. Also, the half-maximal inhibitory concentration (IC50) with Plasmodium falciparum [4] was 93 nM; in the series on HepG2 [12], 5000 nM. This compound also gave a solubility in series [6] of 0.33 µg/mL (≈ 0.758 µM). In [11], this compound yielded a logD at 6 h of no less than 4.
Take `CN1CCN(c2ccc(Nc3ncc(C#N)c(Nc4ccccc4C(N)=O)n3)cc2)CC1`: the concentration for a half-maximal effect (EC50) in the series on Plasmodium falciparum [18] was found to be 40 nM. Moreover, the Activity in the series with HepG2 [19] is 43%.
